The text below walks through data of ChEMBL document CHEMBL1201862, “PubChem BioAssay data set” (2004).

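Each compound was tested at five concentrations against cells in 96-well plates for 48 hours. GI50 = concentration required for 50% inhibition of growth.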 Active and inactive are the calls of the source. Cut-off read from the data, not from the text of the source: active = GI50 up to about 1.1 µM and inactive = higher.

What all share (test): DTP human tumour cell line panel, 48 h
Assay [1] relates to M14.
Assay [2] has as its system M19-MEL.
In assay [3] the test system is UO-31.
The test system of assay [4] is DMS-273.
Assay [5] relates to SF-539.
The subject of assay [6] is MOLT-4.
In assay [7] the test system is SK-MEL-28.
In assay [8] the test system is OVCAR-3.
For assay [9], the system named is SF-268.
In assay [10] the test system is Malme-3M.
The test system of assay [11] is A549.
For assay [12], the system named is EKVX.
Assay [13] has as its system KM-20L2.
Assay [14] has as its system TK-10.
For assay [15], the system named is SN12C.

For the compound `Clc1cc2nsnc2c(Cl)n1`, the GI50 was 15.2 µM (inactive) in assay [1]; 24.7 µM (inactive) in assay [2]; 20.6 µM (inactive) in assay [3]; 36.3 µM (inactive) in assay [4]; 22.9 µM (inactive) in assay [5]; 14.2 µM (inactive) in assay [6]. Besides, the GI50 in [7] was 20.1 µM (inactive); in assay [8], 17.9 µM (inactive); in [9], 26.4 µM (inactive); in assay [10], 16.3 µM (inactive); in assay [11] it was 50 µM (inactive); in assay [12], > 100 µM (inactive). The GI50 in [13] was 37.6 µM (inactive); in assay [14] it was 20.9 µM (inactive).
With `O=C(O)C(Cc1cccs1)NC(=O)C(F)(F)F` (centres undefined), the GI50 in assay [2], in [3], in assay [4], in assay [5], in assay [15] and in [6] was > 100 µM (inactive) in each case. Also, the GI50 in assay [7], in assay [8], in assay [9], in assay [10], in [11] and in assay [12] was > 100 µM (inactive) in each case. For the same compound, the GI50 in [13] is > 100 µM (inactive).
On to `COc1ccc(C(=O)C(C(=O)C(=O)NC2C3CC4CC(C3)CC2C4)c2ccc(OC)cc2)cc1` (centres undefined), for which the GI50 in assay [1], in assay [2], in assay [3], in [4], in assay [5] and in assay [15] was > 100 µM (inactive) throughout. The GI50 in assay [6], in [7], in assay [8], in [9], in assay [10] and in assay [11] was > 100 µM (inactive) throughout. Moreover, the GI50 in [12], in assay [13] and in [14] was > 100 µM (inactive) in each case.
Regarding `COC(=O)C1Cc2c([nH]c3ccccc23)C=N1` (centres undefined), the GI50 in [1] is > 100 µM (inactive); in assay [2] it was 74.8 µM (inactive); in [3], > 100 µM (inactive); in assay [4], > 100 µM (inactive); in assay [5], > 100 µM (inactive); in assay [15] it was > 100 µM (inactive). Besides, the GI50 in [6], in [7], in assay [8], in assay [9], in [10] and in [11] was > 100 µM (inactive) throughout. Besides, the GI50 was > 100 µM (inactive) in [12], > 100 µM (inactive) in assay [13] and 59.3 µM (inactive) in assay [14].
On to `Cc1cc(N(CCC#N)CCC#N)ccc1/C=C(\NC(=O)/C=C/c1ccccc1)C(=O)Nc1ccccc1Cl`, for which the GI50 in [1], in assay [2], in [3], in assay [4], in assay [5] and in assay [15] was > 100 µM (inactive) each time. Moreover, the GI50 in assay [6], in [7], in [8], in assay [9], in [10] and in assay [11] was > 100 µM (inactive) throughout. Further, the GI50 in [12] and in assay [13] was > 100 µM (inactive) in each case.
As to `CC1CC(C)(O)C2C3(C)CCCC2(COC3=O)C12CCC1(CCOC1=O)O2` (centres undefined), the GI50 in assay [2] was > 250 µM (inactive); in assay [3], > 238 µM (inactive); in [4], > 250 µM (inactive); in assay [5], > 250 µM (inactive); in assay [15] it was > 250 µM (inactive); in assay [6] it was > 250 µM (inactive). In addition, the GI50 in [7], in assay [8], in assay [9], in assay [10], in assay [11] and in assay [12] was > 250 µM (inactive) each time. In [13], the GI50 was > 250 µM (inactive).
For the compound `O=C1c2ccccc2C(O)(C(=O)O)C1(O)CC=C(Cl)Cl` (centres undefined), the GI50 in assay [2] is > 125 µM (inactive); in assay [3], > 112 µM (inactive); in assay [4], > 125 µM (inactive); in [5], > 125 µM (inactive); in assay [15], > 125 µM (inactive); in assay [6], > 125 µM (inactive). Moreover, the GI50 in assay [7], in [8], in [9], in [10], in assay [11] and in assay [12] was > 125 µM (inactive) each time. The GI50 in [13] was > 125 µM (inactive).
With `CC1(C)N=C(N)N=C(N)N1c1ccc(CCc2ccccc2)cc1`, the GI50 in assay [2] was 2.84 µM (inactive); in assay [3] it was > 34.1 µM (inactive); in assay [4], 0.7 µM (active); in [5], 2.78 µM (inactive); in [15], 0.759 µM (active); in [6], 3.61 µM (inactive). Besides, the GI50 was 6.01 µM (inactive) in assay [7]; 1.79 µM (inactive) in [8]; 0.618 µM (active) in [9]; 2.2 µM (inactive) in assay [10]; 0.46 µM (active) in [11]; 0.622 µM (active) in [12]. In addition, the GI50 in [13] is 1.16 µM (inactive).
Regarding `COC(=O)c1sc(=O)n(-c2ccccc2)c1SCc1ccccc1`, the GI50 in [1], in assay [2], in assay [3], in assay [4], in assay [5] and in [15] was > 100 µM (inactive) throughout. In addition, the GI50 in [6], in assay [7], in assay [8], in [10], in [11] and in assay [12] was > 100 µM (inactive) throughout. In addition, the GI50 in assay [13] and in assay [14] was > 100 µM (inactive) throughout.
Consider `Cc1c2ccncc2c(C)c2c1[nH]c1ccccc12` [ELLIPTECINE], for which the GI50 in assay [2] was 0.857 µM (active); in assay [3] it was 1.95 µM (inactive); in assay [4], 0.378 µM (active); in assay [5], 0.867 µM (active); in [15] it was 1.06 µM (active); in assay [6] it was 0.256 µM (active). Besides, the GI50 in assay [7] was 1.5 µM (inactive); in assay [8], 0.322 µM (active); in assay [9], 0.698 µM (active); in [10], 2.01 µM (inactive); in [11], 0.504 µM (active); in assay [12], 0.933 µM (active). Besides, the GI50 in assay [13] is 0.548 µM (active).
Turning to `CC(C)c1oc(=O)cc2c1C(O)C1OC(=O)C3(C)C(O)C4OC4C2(C)C13` (centres undefined) [NAGILACTONE], the GI50 in [2] was 1.26 µM (inactive); in assay [3] it was 4.52 µM (inactive); in assay [4], 0.966 µM (active); in [5], 0.989 µM (active); in assay [15], 1.31 µM (inactive); in assay [6], 0.83 µM (active). Moreover, the GI50 in assay [7] was 1.37 µM (inactive); in assay [8], 1.41 µM (inactive); in assay [9], 4.09 µM (inactive); in [10] it was 1.69 µM (inactive); in assay [11], 2.44 µM (inactive); in [12] it was 2.19 µM (inactive). In addition, the GI50 in assay [13] was 1.63 µM (inactive).
With `COc1ccc(N(CC(=O)O)S(=O)(=O)c2ccccc2)cc1`, the GI50 in [1], in assay [2], in assay [3], in [4], in assay [5] and in assay [15] was > 100 µM (inactive) in each case. Besides, the GI50 in [6], in [8], in [10], in assay [11], in assay [12] and in [13] was > 100 µM (inactive) throughout. For the same compound, the GI50 in [14] is > 100 µM (inactive).
For the compound `CC(C)CCCC(C)[C@H]1CCC(C2C[C@@H](O)[C@@H]3CC(O)[C@@H](O)C[C@]3(CO)C2=O)[C@]1(C)CCO` (some centres undefined), the GI50 in assay [2] is 21 µM (inactive); in assay [3] it was 23 µM (inactive); in [4], 32.3 µM (inactive); in assay [5], 20.9 µM (inactive); in [15] it was 30.2 µM (inactive); in assay [6], 0.491 µM (active). Also, the GI50 was 21.8 µM (inactive) in assay [7]; 21.4 µM (inactive) in [8]; 25 µM (inactive) in [9]; 23.1 µM (inactive) in assay [10]; 34 µM (inactive) in assay [11]; > 57.8 µM (inactive) in assay [12]. The GI50 in [13] was 20 µM (inactive).
On to `CCn1c(=O)c(C(=O)O)c(Cl)c2cc3c(cc21)OCO3`, for which the GI50 in assay [2], in [3], in [4], in assay [5], in assay [15] and in assay [6] was > 100 µM (inactive) each time. Further, the GI50 in assay [7], in assay [8], in [9], in assay [10], in assay [11] and in [12] was > 100 µM (inactive) each time. The GI50 in [13] is > 100 µM (inactive).

As a reminder, the GI50 is the concentration giving 50% growth inhibition.
